What follows are molecules tested against T1, hFXR (Homo sapiens, UniProt Q96RI1) (assay: In Vitro FXR Assay (TK): TK-ECRE-luc reporter in transfected CV-1 cells). Settings: 18 hrs incubation, luminescence.
T1 construct: expressed in transfected cells; host or cells: CV-1 cells
T1 sequence (Q96RI1 1-486): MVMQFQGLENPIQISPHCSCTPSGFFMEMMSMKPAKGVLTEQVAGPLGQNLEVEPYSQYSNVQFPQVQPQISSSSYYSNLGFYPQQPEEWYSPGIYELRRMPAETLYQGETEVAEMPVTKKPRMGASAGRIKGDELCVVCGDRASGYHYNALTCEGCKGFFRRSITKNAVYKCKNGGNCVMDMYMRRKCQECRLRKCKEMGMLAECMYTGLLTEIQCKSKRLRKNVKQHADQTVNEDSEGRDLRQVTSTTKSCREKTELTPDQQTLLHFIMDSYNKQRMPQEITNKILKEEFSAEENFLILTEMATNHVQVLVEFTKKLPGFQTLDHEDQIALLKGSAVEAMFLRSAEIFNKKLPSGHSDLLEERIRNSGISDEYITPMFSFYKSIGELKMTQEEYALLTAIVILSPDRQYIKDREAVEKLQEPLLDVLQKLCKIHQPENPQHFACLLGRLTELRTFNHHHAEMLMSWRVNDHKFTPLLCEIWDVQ
T1 sequence (P19793 1-462 partner): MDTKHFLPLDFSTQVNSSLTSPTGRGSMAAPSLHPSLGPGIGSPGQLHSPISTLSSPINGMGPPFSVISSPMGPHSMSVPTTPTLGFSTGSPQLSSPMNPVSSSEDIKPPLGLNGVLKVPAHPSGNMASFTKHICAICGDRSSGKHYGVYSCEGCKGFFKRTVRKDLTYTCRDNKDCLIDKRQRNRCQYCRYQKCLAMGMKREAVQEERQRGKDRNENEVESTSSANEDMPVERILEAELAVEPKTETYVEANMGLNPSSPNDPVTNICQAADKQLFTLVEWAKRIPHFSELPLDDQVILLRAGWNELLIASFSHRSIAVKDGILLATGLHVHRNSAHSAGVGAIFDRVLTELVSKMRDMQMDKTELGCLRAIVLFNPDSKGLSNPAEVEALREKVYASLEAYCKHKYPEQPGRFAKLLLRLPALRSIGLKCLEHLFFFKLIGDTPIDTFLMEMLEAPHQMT
Format: cell-based
Outline: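 CV-1 cells transiently cotransfected with hFXR, hRXR, TK-ECRE-luc reporter and pCMX-YFP plasmids in charcoal-stripped serum medium. Serially diluted compounds added for 18 h at 37° C., then cells lysed and luciferase luminescence measured.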

EC50 | SMILES
≤ 50 nM | COc1ccc(C23CCC(CN(c4cc(-c5cnn(C(C)C)c5)c(F)cn4)C(=O)[C@H]4CC[C@H](OC(=O)NCCCO)CC4)(CC2)CC3)cc1C [Compound 25.05, 4-((5-Fluoro-4-(1-isopropyl-1H-pyrazol-4-yl)pyridin-2-yl)((4-(4-methoxy-3-methylphenyl)bicyclo[2.2.2]octan-1-yl)methyl)carbamoyl)cyclohexyl trans-(3-hydroxypropyl)carbamate]
≤ 50 nM | COc1ccc(C23CCC(CN(c4cc(-c5cnn(C(C)C)c5)c(F)cn4)C(=O)[C@H]4CC[C@H](OC(=O)N5CC(CO)C5)CC4)(CC2)CC3)cc1C [Compound 25.06, 4-((5-Fluoro-4-(1-isopropyl-1H-pyrazol-4-yl)pyridin-2-yl)((4-(4-methoxy-3-methylphenyl)bicyclo[2.2.2]octan-1-yl)methyl)carbamoyl)cyclohexyl trans-3-(hydroxymethyl)azetidine-1-carboxylate]
≤ 50 nM | COc1ccc(C23CCC(CN(c4cc(-c5cnn(C(C)C)c5)c(F)cn4)C(=O)[C@H]4CC[C@H](OC(=O)N5CC(CS(C)(=O)=O)C5)CC4)(CC2)CC3)cc1C [Compound 25.07, 4-((5-Fluoro-4-(1-isopropyl-1H-pyrazol-4-yl)pyridin-2-yl)((4-(4-methoxy-3-methylphenyl)bicyclo[2.2.2]octan-1-yl)methyl)carbamoyl)cyclohexyl trans-3-((methylsulfonyl)methyl)azetidine-1-carboxylate]
≤ 50 nM | COc1ccc(C23CCC(CN(c4ccc(F)c(-c5cnn(C(C)C)c5)c4)C(=O)[C@H]4CC[C@H](OC(=O)NCCCO)CC4)(CC2)CC3)cc1C [Compound 25.08, 4-((4-Fluoro-3-(1-isopropyl-1H-pyrazol-4-yl)phenyl)((4-(4-methoxy-3-methylphenyl)bicyclo[2.2.2]octan-1-yl)methyl)carbamoyl)cyclohexyl trans-(3-hydroxypropyl)carbamate]
≤ 50 nM | COc1ccc(C23CCC(CN(c4ccc(F)c(-c5cnn(C(C)C)c5)c4)C(=O)[C@H]4CC[C@H](OC(=O)N5CC(CO)C5)CC4)(CC2)CC3)cc1C [Compound 25.09, 4-((4-Fluoro-3-(1-isopropyl-1H-pyrazol-4-yl)phenyl)((4-(4-methoxy-3-methylphenyl)bicyclo[2.2.2]octan-1-yl)methyl)carbamoyl)cyclohexyl trans-3-(hydroxymethyl)azetidine-1-carboxylate]
≤ 50 nM | COc1ccc(C23CCC(CN(c4ccc(F)c(-c5cnn(C(C)C)c5)c4)C(=O)[C@H]4CC[C@H](OC(=O)N5CC(CS(C)(=O)=O)C5)CC4)(CC2)CC3)cc1C [Compound 25.10, 4-((4-Fluoro-3-(1-isopropyl-1H-pyrazol-4-yl)phenyl)((4-(4-methoxy-3-methylphenyl)bicyclo[2.2.2]octan-1-yl)methyl)carbamoyl)cyclohexyl trans-3-((methylsulfonyl)methyl)azetidine-1-carboxylate]
≤ 50 nM | COc1ccc(C23CCC(CN(c4ccc(F)c(-c5cnn(C(C)C)c5)c4)C(=O)[C@H]4CC[C@H](OC(=O)N5CC(C#N)C5)CC4)(CC2)CC3)cc1C [Compound 25.11, 4-((4-Fluoro-3-(1-isopropyl-1H-pyrazol-4-yl)phenyl)((4-(4-methoxy-3-methylphenyl)bicyclo[2.2.2]octan-1-yl)methyl)carbamoyl)cyclohexyl trans-3-cyanoazetidine-1-carboxylate]
≤ 50 nM | COc1ccc(C23CCC(CN(c4cc(-c5cnn(C(C)C)c5)c(F)cn4)C(=O)[C@H]4CC[C@H](OC(=O)N5CC(C#N)C5)CC4)(CC2)CC3)cc1C [Compound 25.12, 4-((5-Fluoro-4-(1-isopropyl-1H-pyrazol-4-yl)pyridin-2-yl)((4-(4-methoxy-3-methylphenyl)bicyclo[2.2.2]octan-1-yl)methyl)carbamoyl)cyclohexyl trans-3-cyanoazetidine-1-carboxylate]
≤ 50 nM | COc1ccc(C23CCC(CN(c4ncc(F)c(-c5cnn(C(C)C)c5)c4F)C(=O)[C@H]4CC[C@H](OC(=O)N5CC(O)C5)CC4)(CC2)CC3)cc1C [Compound 25.14, 4-((3,5-Difluoro-4-(1-isopropyl-1H-pyrazol-4-yl)pyridin-2-yl)((4-(4-methoxy-3-methylphenyl)bicyclo[2.2.2]octan-1-yl)methyl)carbamoyl)(trans-cyclohexyl) 3-hydroxyazetidine-1-carboxylate]
≤ 50 nM | COc1ccc(C23CCC(CN(c4ccc(F)c(-c5cnn(C(C)C)c5)c4F)C(=O)[C@H]4CC[C@H](OC(=O)N5CC(O)C5)CC4)(CC2)CC3)cc1C [Compound 25.15, 4-((2,4-Difluoro-3-(1-isopropyl-1H-pyrazol-4-yl)phenyl)((4-(4-methoxy-3-methylphenyl)bicyclo[2.2.2]octan-1-yl)methyl)carbamoyl)cyclohexyl trans-3-hydroxyazetidine-1-carboxylate]
≤ 50 nM | COc1ccc(C23CCC(CN(c4cc(-c5cnn(C6(C)CCC6)c5)ccn4)C(=O)[C@H]4CC[C@H](OC(=O)NCCO)CC4)(CC2)CC3)cc1C [Compound 25.16, 4-(((4-(4-Methoxy-3-methylphenyl)bicyclo[2.2.2]octan-1-yl)methyl)(4-(1-(1-methylcyclobutyl)-1H-pyrazol-4-yl)pyridin-2-yl)carbamoyl)(trans-cyclohexyl)(2-hydroxyethyl)carbamate]
≤ 50 nM | COc1ccc(C23CCC(CN(c4cc(-c5cnn(C6(C)CCC6)c5)ccn4)C(=O)[C@H]4CC[C@H](OC(=O)NCCCO)CC4)(CC2)CC3)cc1C [Compound 25.17, 4-(((4-(4-Methoxy-3-methylphenyl)bicyclo[2.2.2]octan-1-yl)methyl)(4-(1-(1-methylcyclobutyl)-1H-pyrazol-4-yl)pyridin-2-yl)carbamoyl)(trans-cyclohexyl)(3-hydroxypropyl)carbamate]
≤ 50 nM | COc1ccc(C23CCC(CN(c4cc(-c5cnn(C6(C)CCC6)c5)c(F)cn4)C(=O)[C@H]4CC[C@H](OC(=O)N5CC(O)C5)CC4)(CC2)CC3)cc1C [Compound 25.18, 4-((5-Fluoro-4-(1-(1-methylcyclobutyl)-1H-pyrazol-4-yl)pyridin-2-yl)((4-(4-methoxy-3-methylphenyl)bicyclo[2.2.2]octan-1-yl)methyl)carbamoyl)cyclohexyl trans-3-hydroxyazetidine-1-carboxylate]
≤ 50 nM | COc1ccc(C23CCC(CN(c4cc(-c5cnn(C6(C)CCC6)c5)ccn4)C(=O)[C@H]4CC[C@H](OC(=O)N5CC(S(C)(=O)=O)C5)CC4)(CC2)CC3)cc1C [Compound 25.19, 4-(((4-(4-Methoxy-3-methylphenyl)bicyclo[2.2.2]octan-1-yl)methyl)(4-(1-(1-methylcyclobutyl)-1H-pyrazol-4-yl)pyridin-2-yl)carbamoyl)(trans-cyclohexyl) 3-(methylsulfonyl)azetidine-1-carboxylate]
≤ 50 nM | COc1ccc(C23CCC(CN(c4cc(-c5cnn(C6(C)CCC6)c5)ccn4)C(=O)[C@H]4CC[C@H](OC(=O)N5CC(CS(C)(=O)=O)C5)CC4)(CC2)CC3)cc1C [Compound 25.20, 4-(((4-(4-Methoxy-3-methylphenyl)bicyclo[2.2.2]octan-1-yl)methyl)(4-(1-(1-methylcyclobutyl)-1H-pyrazol-4-yl)pyridin-2-yl)carbamoyl)(trans-cyclohexyl) 3-((methysulfonyl)methyl)azetidine-1-carboxylate]
≤ 50 nM | COc1ccc(C23CCC(CN(c4cc(-c5cnn(C6(C)CCC6)c5)ccn4)C(=O)[C@H]4CC[C@H](OC(=O)N5CC(CO)C5)CC4)(CC2)CC3)cc1C [Compound 25.21, 4-(((4-(4-Methoxy-3-methylphenyl)bicyclo[2.2.2]octan-1-yl)methyl)(4-(1-(1-methylcyclobutyl)-1H-pyrazol-4-yl)pyridin-2-yl)carbamoyl)(trans-cyclohexyl) 3-(hydroxymethyl)azetidine-1-carboxylate]
≤ 50 nM | COc1ccc(C23CCC(CN(c4cncc(-c5cnn(C6(C)CCC6)c5)c4)C(=O)[C@H]4CC[C@H](OC(=O)N5CC(O)C5)CC4)(CC2)CC3)cc1C [Compound 25.22, 4-(((4-(4-Methoxy-3-methylphenyl)bicyclo[2.2.2]octan-1-yl)methyl)(5-(1-(1-methylcyclobutyl)-1H-pyrazol-4-yl)pyridin-3-yl)carbamoyl)cyclohexyl trans-3-hydroxyazetidine-1-carboxylate]
≤ 50 nM | COc1ccc(C23CCC(CN(c4ccnc(-c5cnn(C6(C)CCC6)c5)c4)C(=O)[C@H]4CC[C@H](OC(=O)N5CC(O)C5)CC4)(CC2)CC3)cc1C [Compound 25.23, 4-(((4-(4-Methoxy-3-methylphenyl)bicyclo[2.2.2]octan-1-yl)methyl)(2-(1-(1-methylcyclobutyl)-1H-pyrazol-4-yl)pyridin-4-yl)carbamoyl)cyclohexyl trans-3-hydroxyazetidine-1-carboxylate]

Reference: US20220056019A1, “FARNESOID X RECEPTOR AGONISTS AND USES THEREOF” (Metacrine, Inc., priority 2018, published 2022)
